{"source": "patent US11485657B2", "about": "“Biological remediation of groundwater using an algal photobioreactor system” (priority 2019, dated 2022)", "test_system": "C. subellipsoidea", "experiment": "Paraoxon hydrolysis in C. subellipsoidea cultures assayed by p-nitrophenol production (absorbance 408 nm)", "type": "cell-based, Coccomyxa subellipsoidea", "settings": "for hydrolysis of paraoxon into p-nitrophenol with oligomycin and rotenone in the dark: oligomycin 20 μg/mL and rotenone 20 μg/mL together, samples at 12 h, 24 h, 48 h"}
{"smiles": "CC[C@H]1/C=C/C=C/C[C@@H](C)[C@H](O)[C@@](C)(O)C(=O)[C@@H](C)[C@H](O)[C@@H](C)C(=O)[C@@H](C)[C@H](O)[C@@H](C)/C=C/C(=O)O[C@@H]2[C@H](C)[C@H](CC1)O[C@]1(CC[C@H](C)[C@H](C[C@@H](C)O)O1)[C@H]2C", "note": "[oligomycin]", "values": [{"measurement": "hydrolysis of paraoxon into p-nitrophenol with oligomycin and rotenone in the dark", "setting": "paraoxon 0.25 mg/mL", "result": "not hydrolyzed"}]}
{"smiles": "C=C(C)[C@H]1Cc2c(ccc3c2O[C@@H]2COc4cc(OC)c(OC)cc4[C@@H]2C3=O)O1", "note": "[rotenone]", "values": [{"measurement": "hydrolysis of paraoxon into p-nitrophenol with oligomycin and rotenone in the dark", "setting": "paraoxon 0.25 mg/mL", "result": "not hydrolyzed"}]}
{"smiles": "CN(C)C(=O)Nc1ccc(Cl)c(Cl)c1", "note": "[DCMU, 3-(3,4-dichlorophenyl)-1,1-dimethylurea]", "values": [{"measurement": "effect on paraoxon hydrolysis, DCMU and paraoxon in the light", "setting": "actively growing cultures, light", "result": "blocked hydrolysis"}, {"measurement": "production of p-nitrophenol from paraoxon in the presence of DCMU", "setting": "paraoxon 0.25 mg/mL, 12 h, light, versus absence of DCMU", "result": "decreased nearly two-fold"}]}
